Key:
BCG killed vaccine = test: Enhancing action on BCG vaccine (adjuvant activity), 24 hours foot-pad test; assay type: in vivo; details: ICR mouse; s.c. 0.2 ml mixture of BCG killed vaccine (100 μg/ml) and compound in Freund's incomplete adjuvant (1000 μg/ml); tuberculin 10 μg after 14 days; measured after 24 hours
Method: (1) Enhancing action on BCG vaccine (adjuvant activity)
0.2 ml of an equivalent weight mixture of a solution of BCG killed vaccine in physiological saline (100 μg/ml) and a solution of a compound of the invention in Freund's incomplete adjuvant (1000 μg/ml) was subcutaneously injected to the back of ICR mouse (one group consisting of 7 mice). After 14 days, 10 μg of tuberculin was intradermally injected into the hind foot-pad. Swelling of the foot-pad was measured after 24 hours (24 hours foot-pad test).
The control is the above mentioned mixture excluded a compound of the invention.

[1] = test system: B type hepatitis vaccine (HBs); test: Enhancing effect on hepatitis vaccine (adjuvant activity), IgG antibody by ELISA; assay type: in vivo; details: CDF1 mouse; for Anti HBs-ELISA unit, Primary response serum: i.p. 0.2 ml compound (100 μg/ml) mixed with HBs vaccine, serum at 3 weeks; for Anti HBs-ELISA unit, Secondary response serum: second i.p. injection of 0.2 ml test solution, serum at 2 weeks
Method: (2) Enhancing effect on hepatitis vaccine (adjuvant activity)
A compound of the invention was dissolved or suspended in physiological saline (100 μg/ml), and mixed with a solution of B type hepatitis vaccine (HBs) in physiological saline (100 μg/m) at an equivalent weight ratio to obtain the test solution. A solution excluded the compound of the invention from the test solution was used as control.
The test solution (0.2 ml) was intraperitoneally injected into CDF1 mouse (one group consisting of 10 mice). At 3 weeks after the administration, a blood was taken from the intravenous vein in eyeground of each the mice and centrifuged to obtain serum (primary response serum). Further, 0.2 ml of the test solution was again intraperitoneally injected into each mice, and at 2 weeks stage, serum was separated in the similar way (secondary response serum).
Value for IgG antibody against B type hepatitis virus of the resulting serum was measured by ELISA method.

[2] = test system: influenza HA vaccine (A/Bangkok/10/83 strain, H1N1); test: Enhancing effect on influenza HA vaccine (adjuvant activity), ELISA; assay type: in vivo; details: CDF1 mouse, compound (100 μg/ml) mixed with influenza HA vaccine (100 CCA/ml)
Method: (3) Enhancing effect on influenza HA vaccine (adjuvant activity)
A compound of the invention was dissolved or suspended in physiological saline (100 μg/ml). Separately, influenza HA vaccine (A/Bangkok/10/83 strain, H1N1) was dissolved in physiological saline (100 CCA/ml). These two solutions were mixed in an equivalent weight to make the test solution. Control is a solution excluded the compound of the invention from the test solution.
The test solution was administered into CDF1 mouse in a similar way to that of the test of enhancing action for hepatitis vaccine as mentioned above, to obtain primary and secondary response sera.

[3] = test system: leukemia cells of L-1210 mouse; test: Activation for macrophages: cytostatic rate of intraperitoneal macrophages on leukemia cells; assay type: in vivo; details: CDF1 mouse i.p. 500 μg/ml, 0.2 ml; macrophages collected after 4 days; macrophages:L-1210 cells 20:1; 72 hours
Method: (4) Activation for macrophages
A test solution of a compound of the invention in physicological saline (500 μg/ml, 0.2 ml) was intraperioneally injected into CDF1 mouse (one group consisting of mice). Intraperioneal macrophages which were collected after 4 days and leukemia cells of L-1210 mouse were mixed at the cell ratio of 20 and 1. Each 200 μl of the mixture was put on a microplate having 96 holes. After 72 hours, numbers of cells in each holes were counted, and cytostatic rate of the mixture was measured.

[4] = Stimulation effect on antibody producing cells (plaque numbers, Cunningham technique); assay type: in vivo, ICR mouse; details: for Plaque No.: ICR mouse, SRBC i.v. and compound 500 μg/ml, 0.2 ml i.v., splenic cells after 4 days; for Stimulation index: plaque number relative to control (saline) = 1
Method: (5) Stimulation effect on anti-body precluding cells
A solution of sheep […] (SRBC) in phosphate buffered physiological saline (5×10^7 cells/ml), 0.2 ml was injected into tail intravenous vein of ICR mouse (7 mice per group). At the same time, a solution of a compound of the invention in physiological saline (500 μg/ml), 0.2 ml was similarly injected. After 4 days, lien was picked up from the treated mouse to obtain splenic cells. Plaque numbers were measured by Cunningham technique.

E. coli (JC-2) = test: Phylactic effect, E. coli infection; assay type: in vivo; details: ICR mouse; compound 500 μg/ml, 0.2 ml i.p. one day before infection i.p. 1×10^7 /mouse; after 7 days of infection
Method: (§1) A solution of a compound of the invention in physiological saline (500 μg/ml), 0.2 ml was intraperitoneally injected into ICR mouse (20 mice per group). After a day, E. coli (JC-2) and Psud. aeruginosa (NCTC 10490) were incubated through intraperitoneal route so as to be at concentration of 1×10^7 /mouse. Survival rate after 7 days of infection was measured.

[5] = test system: Psud. aeruginosa (NCTC 10490); test: Phylactic effect, Psud. aeruginosa infection; assay type: in vivo; details: ICR mouse; compound 500 μg/ml, 0.2 ml i.p. one day before infection i.p. 1×10^7 /mouse; after 7 days of infection
Method: as §1

Meth A fibrosarcomas = test: Antitumour effect, Meth A fibrosarcoma; assay type: in vivo; details: BALB/C mouse; s.c. 0.2 ml mixture of Meth A cells (1×10^6 cells/ml) and compound (1,000 μg/ml); after 35 days
Method: Meth A fibrosarcomas were suspended in phosphate buffered physiological saline (1×10^6 cells/ml). Separately, a solution of a compound of the invention in physiological saline was prepared (1,000 μg/ml). An equivalent weight mixture of these two solution (0.2 ml) was subcutaneously injected into BALB/C mouse (20 mice per group). Survival rate after 35 days was measured.

## CCCCCCCCCCCC(=O)O[C@H](CCCCCCCCCCC)CC(=O)OC[C@H]1O[C@@H](S)[C@H](NC(C)=O)[C@@H](O[C@H](C)C(=O)N[C@@H](C)C(=O)N[C@H](CCC(=O)OC)C(N)=O)[C@@H]1O [Example 7, N-[[2-O-{2-Acetamido-2,3-dideoxy-6-O-[(3R)-3-dodecanoyloxytetradecanoyl]-1-thio-β-D-glucopyranos-3-yl}-D-lactoyl]]-L-alanyl-D-isoglutamine methyl ester]
BCG killed vaccine
  Swelling of Foot-pad: 50.6 ± 13.6 × 0.01 mm
[1]
  Anti HBs-ELISA unit, Primary response serum: 2,500 ELISA unit
  Anti HBs-ELISA unit, Secondary response serum: 110,000 ELISA unit
[2]
  Anti-influenza HA virus ELISA unit, Primary response serum: 2,000 ELISA unit
  Anti-influenza HA virus ELISA unit, Secondary response serum: 26,000 ELISA unit
[3]
  Cytostatic rate: 22.8 ± 2.6%
[4]
  Plaque No.: 10.88 ± 9.8 × 10^3
  Stimulation index: 2.3
E. coli (JC-2)
  Survival rate, E. coli: 30%
[5]
  Survival rate, Psud. aeruginosa: 20%
Meth A fibrosarcomas
  Survival rate: 10%

## CCCCCCCCCCCCCC(=O)O[C@H](CCCCCCCCCCC)CC(=O)OC[C@H]1O[C@@H](S)[C@H](NC(C)=O)[C@@H](O[C@H](C)C(=O)N[C@@H](C)C(=O)N[C@H](CCC(=O)OC)C(N)=O)[C@@H]1O [Example 8, N-[[2-O-{2-Acetamido-2,3-dideoxy-6-O-[(3R)-3-tetradecanoyloxytetradecanoyl]-1-thio-β-D-glucopyranos-3-yl}-D-lactoyl]]-L-alanyl-D-isoglutamine methyl ester]
BCG killed vaccine
  Swelling of Foot-pad: 51.8 ± 11.0 × 0.01 mm
[1]
  Anti HBs-ELISA unit, Primary response serum: 2,200 ELISA unit
  Anti HBs-ELISA unit, Secondary response serum: 105,000 ELISA unit
[2]
  Anti-influenza HA virus ELISA unit, Primary response serum: 2,100 ELISA unit
  Anti-influenza HA virus ELISA unit, Secondary response serum: 22,000 ELISA unit
[3]
  Cytostatic rate: 31.6 ± 1.6%
[4]
  Plaque No.: 8.63 ± 7.9 × 10^3
  Stimulation index: 1.8
E. coli (JC-2)
  Survival rate, E. coli: 35%
[5]
  Survival rate, Psud. aeruginosa: 20%
Meth A fibrosarcomas
  Survival rate: 5%

## CCCCCCCCCCCCCCCC(=O)O[C@H](CCCCCCCCCCC)CC(=O)OC[C@H]1O[C@@H](S)[C@H](NC(C)=O)[C@@H](O[C@H](C)C(=O)N[C@@H](C)C(=O)N[C@H](CCC(=O)OC)C(N)=O)[C@@H]1O [Example 9, N-[[2-O-{2-Acetamido-2,3-dideoxy-6-O-[(3R)-3-hexadodecanoyloxytetradecanoyl]-1-thio-β-D-glucopyranos-3-yl}-D-lactoyl]]-L-alanyl-D-isoglutamine methyl ester]
BCG killed vaccine
  Swelling of Foot-pad: 49.1 ± 12.0 × 0.01 mm
[1]
  Anti HBs-ELISA unit, Primary response serum: 3,400 ELISA unit
  Anti HBs-ELISA unit, Secondary response serum: 150,000 ELISA unit
[2]
  Anti-influenza HA virus ELISA unit, Primary response serum: 1,900 ELISA unit
  Anti-influenza HA virus ELISA unit, Secondary response serum: 25,000 ELISA unit
[3]
  Cytostatic rate: 38.2 ± 2.2%
[4]
  Plaque No.: 11.00 ± 10.1 × 10^3
  Stimulation index: 2.3
E. coli (JC-2)
  Survival rate, E. coli: 40%
[5]
  Survival rate, Psud. aeruginosa: 15%
Meth A fibrosarcomas
  Survival rate: 5%
